The values that follow come from US20160324981A1, “LIVER X RECEPTOR AGONISTS AND USES THEREOF” (The California Institute for Biomedical Research, priority 2015, published 2016).

For one test, the target named is T1, LXR-α (Homo sapiens, UniProt Q13133).
T1 construct: purchased Life Technologies PV4655
T1 sequence (Q13133 209-447 limits assumed): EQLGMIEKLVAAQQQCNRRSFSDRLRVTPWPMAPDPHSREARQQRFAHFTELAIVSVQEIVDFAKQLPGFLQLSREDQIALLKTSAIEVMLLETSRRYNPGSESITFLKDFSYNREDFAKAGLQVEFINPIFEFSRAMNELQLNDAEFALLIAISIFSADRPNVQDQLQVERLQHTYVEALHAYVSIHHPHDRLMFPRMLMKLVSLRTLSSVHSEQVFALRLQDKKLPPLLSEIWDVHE
Kind of test: LanthaScreen TR-FRET LXR alpha Coactivator binding assay. The conditions noted are these: EC50 (AC50) from fitted curve, read-out: binding affinity for LXR-α. In general terms: In TR-FRET formats the signal depends on donor and acceptor labels being close together.

The next test addresses T2, LXR-β (Homo sapiens, UniProt P55055).
T2 construct: purchased Life Technologies PV4658
T2 sequence (P55055 222-460 limits assumed): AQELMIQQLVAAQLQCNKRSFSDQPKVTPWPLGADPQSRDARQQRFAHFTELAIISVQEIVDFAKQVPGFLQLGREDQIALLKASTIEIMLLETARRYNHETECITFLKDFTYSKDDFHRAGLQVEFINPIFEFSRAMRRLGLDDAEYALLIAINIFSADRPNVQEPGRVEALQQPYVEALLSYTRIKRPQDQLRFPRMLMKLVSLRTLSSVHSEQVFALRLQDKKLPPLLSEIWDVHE
In words: LanthaScreen TR-FRET LXR beta Coactivator binding assay. The conditions noted are these: EC50 (AC50) from fitted curve, read-out: binding affinity for LXR-β.

Test [1] deals with LXR-α transcriptional response element. In words: In vitro LXR transactivation (luciferase reporter) assay in THP-1 cells. It is filed as cell-based. The conditions noted are these: Homo sapiens, 24 hours, read-out: EC50 (LXR agonist activity). The protocol:
(§1) Next, the in vitro activity of the anti-CD11a IgGX-CatB-LXR agonist was evaluated using an LXR-driven luciferase stably incorporated into THP-1 and HepG2 cells. This vector encodes the firefly luciferase reporter gene under the control of a CMV promoter and tandem repeats of the LXR-α transcriptional response element. […] Cells were then treated with ONE-Glo and luminescence was read on an Envision plate reader.
(§2) THP-1 cells and HepG2 cells (ATCC) were seeded at 0.6×10^6 cells/well in Opti-MEM media in a 6-well plate and allowed to incubate overnight at 37° C. Afterwards, 50 μL of Cignal lenti LXR-α luciferase reporter (cat no: CLS-7041L, Qiagen) was added to the wells with gentle mixing. After 48 h, the media was changed to completed growth media that was supplemented with 1 μg/mL puromycin. After 24 h, positively transfected cells were cultured for one week in puromycin-containing media.
On the technique in general: Reporter assays use an easily measured gene product as a stand-in for the process of interest.

Test [2] shares this test system. Kind of test: In vitro LXR transactivation (luciferase reporter) assay in HepG2 cells. In kind it is cell-based. Particulars: 24 hours, presence or absence of 10% human AB serum. The protocol: as §1, §2
For test [3], the target named is T3, CD11a (alpha-chain component of lymphocyte function-associated antigen 1, LFA-1) on human THP-1 … (human, UniProt P20701 26-1170).
T3 construct: whole, on cells; Endogenous on THP-1 cells, where it stands with its partner chain in LFA-1; also called LFA-1 alpha chain
Kind of test: flow cytometry on THP-1 cells in the presence of Fc block. As to the method: Cells were incubated either with 2 nM of the dye-conjugated antibodies or with increasing concentrations of antibody (0-50 nM, right) for 1 h at 4° C. in the presence of Fc block (Human Fc block, BD Biosciences).
Because monocytes/macrophages have Fcγ receptors, the binding in the presence of an Fc blocking reagent was also examined (BD biosciences). […] Furthermore, binding of anti-Her2 to THP-1 cells at different concentrations, with or without Fc block treatment was performed (FIG. 9B).

T3 sequence (P20701 26-1170): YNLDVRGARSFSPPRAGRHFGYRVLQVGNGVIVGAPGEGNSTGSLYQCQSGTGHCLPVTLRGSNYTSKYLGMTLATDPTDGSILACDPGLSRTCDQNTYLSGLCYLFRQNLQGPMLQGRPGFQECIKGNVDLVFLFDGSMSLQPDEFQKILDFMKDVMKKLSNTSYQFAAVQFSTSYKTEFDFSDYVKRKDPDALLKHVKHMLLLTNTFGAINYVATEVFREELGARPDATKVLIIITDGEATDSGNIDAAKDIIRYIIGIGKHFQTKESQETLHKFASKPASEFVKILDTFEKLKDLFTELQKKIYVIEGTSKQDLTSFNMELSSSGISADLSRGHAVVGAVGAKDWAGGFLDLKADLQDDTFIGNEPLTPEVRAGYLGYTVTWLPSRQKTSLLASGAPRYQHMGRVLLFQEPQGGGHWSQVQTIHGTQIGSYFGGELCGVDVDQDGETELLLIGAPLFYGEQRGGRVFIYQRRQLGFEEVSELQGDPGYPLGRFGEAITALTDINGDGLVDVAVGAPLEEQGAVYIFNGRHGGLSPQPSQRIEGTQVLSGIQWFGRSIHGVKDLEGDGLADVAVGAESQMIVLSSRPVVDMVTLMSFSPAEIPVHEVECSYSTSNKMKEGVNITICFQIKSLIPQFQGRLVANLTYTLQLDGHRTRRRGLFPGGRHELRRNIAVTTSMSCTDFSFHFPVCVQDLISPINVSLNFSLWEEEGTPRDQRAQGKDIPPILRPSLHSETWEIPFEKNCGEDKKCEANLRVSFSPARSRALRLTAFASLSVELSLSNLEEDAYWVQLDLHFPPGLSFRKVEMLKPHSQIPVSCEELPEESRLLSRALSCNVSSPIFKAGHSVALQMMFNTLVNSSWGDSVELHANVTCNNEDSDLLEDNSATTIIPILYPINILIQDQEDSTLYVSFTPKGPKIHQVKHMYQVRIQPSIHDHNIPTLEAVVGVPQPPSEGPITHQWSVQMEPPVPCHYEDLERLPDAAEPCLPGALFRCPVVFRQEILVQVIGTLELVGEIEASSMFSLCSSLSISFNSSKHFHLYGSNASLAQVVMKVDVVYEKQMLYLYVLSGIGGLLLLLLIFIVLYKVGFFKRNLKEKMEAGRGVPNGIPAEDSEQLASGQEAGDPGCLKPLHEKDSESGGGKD

`CCc1cnc2c(C(F)(F)F)cccc2c1-c1cccc(Oc2cccc(S(=O)(=O)N(C)CCN)c2)c1` [compound 3]: the EC50 amounted to 1.5 nM on LXR-α and 12 nM at LXR-β.

Turning to `O=S(=O)(c1ccccc1)N(CC(F)(F)F)c1ccc(C(O)(C(F)(F)F)C(F)(F)F)cc1` [compound 2, T0901317], the EC50 in test [1] was 79 ± 1.1 nM. Besides, the “LXR activation in HepG2 cells” value in test [2] is “equipotent in these cells relative to THP-1”.

Take `O=C(O)Cc1cccc(OCCCN(Cc2cccc(C(F)(F)F)c2Cl)CC(c2ccccc2)c2ccccc2)c1` [compound 1, GW3965, reference compound]: the results for the EC50 at LXR-α and at LXR-β were 1.1 nM and 0.5 nM, respectively.

B1: anti-CD11a A122pAcF IgG conjugated to Alexa Fluor 488 (anti-CD11a IgGX-AF488) (antibody, V domains shown)
VH: EVQLVESGGGLVQPGGSLRLSCAASGYSFTGHWMNWVRQAPGKGLEWVGMIHPSDSETRYNQKFKDRFTISVDKSKNTLYLQMNSLRAEDTAVYYCARGIYFYGTTYFDYWGQGTLVTVSS
VL: DIQMTQSPSSLSASVGDRVTITCRASKTISKYLAWYQQKPGKAPKLLIYSGSTLQSGVPSRFSGSGSGTDFTLTISSLQPEDFATYYCQQHNEYPLTFGQGTKVEIKR
modifications: para-acetylphenylalanine (pAcF) at position A122 (the X in SEQ ID NO 10), oxime-linked to aminooxy-Alexa Fluor 488
notes: Humanized monoclonal anti-CD11a IgG made in CHO cells; The unnatural amino acid pAcF sits at heavy chain position A122; also called anti-CD11a pAcF IgGX
As a reminder, the Kd is the equilibrium constant for the complex coming apart. In the case of B1, the Kd in test [3] is about 0.5 nM.
